Target: DNA-dependent protein kinase catalytic subunit (Homo sapiens, UniProt P78527)
Assay: Inhibition of DNA-dependent protein kinase (DNA-PK) of HeLa cell nuclear cell extract
Format: cell-free

Sequence of DNA-dependent protein kinase catalytic subunit (P78527 whole entry): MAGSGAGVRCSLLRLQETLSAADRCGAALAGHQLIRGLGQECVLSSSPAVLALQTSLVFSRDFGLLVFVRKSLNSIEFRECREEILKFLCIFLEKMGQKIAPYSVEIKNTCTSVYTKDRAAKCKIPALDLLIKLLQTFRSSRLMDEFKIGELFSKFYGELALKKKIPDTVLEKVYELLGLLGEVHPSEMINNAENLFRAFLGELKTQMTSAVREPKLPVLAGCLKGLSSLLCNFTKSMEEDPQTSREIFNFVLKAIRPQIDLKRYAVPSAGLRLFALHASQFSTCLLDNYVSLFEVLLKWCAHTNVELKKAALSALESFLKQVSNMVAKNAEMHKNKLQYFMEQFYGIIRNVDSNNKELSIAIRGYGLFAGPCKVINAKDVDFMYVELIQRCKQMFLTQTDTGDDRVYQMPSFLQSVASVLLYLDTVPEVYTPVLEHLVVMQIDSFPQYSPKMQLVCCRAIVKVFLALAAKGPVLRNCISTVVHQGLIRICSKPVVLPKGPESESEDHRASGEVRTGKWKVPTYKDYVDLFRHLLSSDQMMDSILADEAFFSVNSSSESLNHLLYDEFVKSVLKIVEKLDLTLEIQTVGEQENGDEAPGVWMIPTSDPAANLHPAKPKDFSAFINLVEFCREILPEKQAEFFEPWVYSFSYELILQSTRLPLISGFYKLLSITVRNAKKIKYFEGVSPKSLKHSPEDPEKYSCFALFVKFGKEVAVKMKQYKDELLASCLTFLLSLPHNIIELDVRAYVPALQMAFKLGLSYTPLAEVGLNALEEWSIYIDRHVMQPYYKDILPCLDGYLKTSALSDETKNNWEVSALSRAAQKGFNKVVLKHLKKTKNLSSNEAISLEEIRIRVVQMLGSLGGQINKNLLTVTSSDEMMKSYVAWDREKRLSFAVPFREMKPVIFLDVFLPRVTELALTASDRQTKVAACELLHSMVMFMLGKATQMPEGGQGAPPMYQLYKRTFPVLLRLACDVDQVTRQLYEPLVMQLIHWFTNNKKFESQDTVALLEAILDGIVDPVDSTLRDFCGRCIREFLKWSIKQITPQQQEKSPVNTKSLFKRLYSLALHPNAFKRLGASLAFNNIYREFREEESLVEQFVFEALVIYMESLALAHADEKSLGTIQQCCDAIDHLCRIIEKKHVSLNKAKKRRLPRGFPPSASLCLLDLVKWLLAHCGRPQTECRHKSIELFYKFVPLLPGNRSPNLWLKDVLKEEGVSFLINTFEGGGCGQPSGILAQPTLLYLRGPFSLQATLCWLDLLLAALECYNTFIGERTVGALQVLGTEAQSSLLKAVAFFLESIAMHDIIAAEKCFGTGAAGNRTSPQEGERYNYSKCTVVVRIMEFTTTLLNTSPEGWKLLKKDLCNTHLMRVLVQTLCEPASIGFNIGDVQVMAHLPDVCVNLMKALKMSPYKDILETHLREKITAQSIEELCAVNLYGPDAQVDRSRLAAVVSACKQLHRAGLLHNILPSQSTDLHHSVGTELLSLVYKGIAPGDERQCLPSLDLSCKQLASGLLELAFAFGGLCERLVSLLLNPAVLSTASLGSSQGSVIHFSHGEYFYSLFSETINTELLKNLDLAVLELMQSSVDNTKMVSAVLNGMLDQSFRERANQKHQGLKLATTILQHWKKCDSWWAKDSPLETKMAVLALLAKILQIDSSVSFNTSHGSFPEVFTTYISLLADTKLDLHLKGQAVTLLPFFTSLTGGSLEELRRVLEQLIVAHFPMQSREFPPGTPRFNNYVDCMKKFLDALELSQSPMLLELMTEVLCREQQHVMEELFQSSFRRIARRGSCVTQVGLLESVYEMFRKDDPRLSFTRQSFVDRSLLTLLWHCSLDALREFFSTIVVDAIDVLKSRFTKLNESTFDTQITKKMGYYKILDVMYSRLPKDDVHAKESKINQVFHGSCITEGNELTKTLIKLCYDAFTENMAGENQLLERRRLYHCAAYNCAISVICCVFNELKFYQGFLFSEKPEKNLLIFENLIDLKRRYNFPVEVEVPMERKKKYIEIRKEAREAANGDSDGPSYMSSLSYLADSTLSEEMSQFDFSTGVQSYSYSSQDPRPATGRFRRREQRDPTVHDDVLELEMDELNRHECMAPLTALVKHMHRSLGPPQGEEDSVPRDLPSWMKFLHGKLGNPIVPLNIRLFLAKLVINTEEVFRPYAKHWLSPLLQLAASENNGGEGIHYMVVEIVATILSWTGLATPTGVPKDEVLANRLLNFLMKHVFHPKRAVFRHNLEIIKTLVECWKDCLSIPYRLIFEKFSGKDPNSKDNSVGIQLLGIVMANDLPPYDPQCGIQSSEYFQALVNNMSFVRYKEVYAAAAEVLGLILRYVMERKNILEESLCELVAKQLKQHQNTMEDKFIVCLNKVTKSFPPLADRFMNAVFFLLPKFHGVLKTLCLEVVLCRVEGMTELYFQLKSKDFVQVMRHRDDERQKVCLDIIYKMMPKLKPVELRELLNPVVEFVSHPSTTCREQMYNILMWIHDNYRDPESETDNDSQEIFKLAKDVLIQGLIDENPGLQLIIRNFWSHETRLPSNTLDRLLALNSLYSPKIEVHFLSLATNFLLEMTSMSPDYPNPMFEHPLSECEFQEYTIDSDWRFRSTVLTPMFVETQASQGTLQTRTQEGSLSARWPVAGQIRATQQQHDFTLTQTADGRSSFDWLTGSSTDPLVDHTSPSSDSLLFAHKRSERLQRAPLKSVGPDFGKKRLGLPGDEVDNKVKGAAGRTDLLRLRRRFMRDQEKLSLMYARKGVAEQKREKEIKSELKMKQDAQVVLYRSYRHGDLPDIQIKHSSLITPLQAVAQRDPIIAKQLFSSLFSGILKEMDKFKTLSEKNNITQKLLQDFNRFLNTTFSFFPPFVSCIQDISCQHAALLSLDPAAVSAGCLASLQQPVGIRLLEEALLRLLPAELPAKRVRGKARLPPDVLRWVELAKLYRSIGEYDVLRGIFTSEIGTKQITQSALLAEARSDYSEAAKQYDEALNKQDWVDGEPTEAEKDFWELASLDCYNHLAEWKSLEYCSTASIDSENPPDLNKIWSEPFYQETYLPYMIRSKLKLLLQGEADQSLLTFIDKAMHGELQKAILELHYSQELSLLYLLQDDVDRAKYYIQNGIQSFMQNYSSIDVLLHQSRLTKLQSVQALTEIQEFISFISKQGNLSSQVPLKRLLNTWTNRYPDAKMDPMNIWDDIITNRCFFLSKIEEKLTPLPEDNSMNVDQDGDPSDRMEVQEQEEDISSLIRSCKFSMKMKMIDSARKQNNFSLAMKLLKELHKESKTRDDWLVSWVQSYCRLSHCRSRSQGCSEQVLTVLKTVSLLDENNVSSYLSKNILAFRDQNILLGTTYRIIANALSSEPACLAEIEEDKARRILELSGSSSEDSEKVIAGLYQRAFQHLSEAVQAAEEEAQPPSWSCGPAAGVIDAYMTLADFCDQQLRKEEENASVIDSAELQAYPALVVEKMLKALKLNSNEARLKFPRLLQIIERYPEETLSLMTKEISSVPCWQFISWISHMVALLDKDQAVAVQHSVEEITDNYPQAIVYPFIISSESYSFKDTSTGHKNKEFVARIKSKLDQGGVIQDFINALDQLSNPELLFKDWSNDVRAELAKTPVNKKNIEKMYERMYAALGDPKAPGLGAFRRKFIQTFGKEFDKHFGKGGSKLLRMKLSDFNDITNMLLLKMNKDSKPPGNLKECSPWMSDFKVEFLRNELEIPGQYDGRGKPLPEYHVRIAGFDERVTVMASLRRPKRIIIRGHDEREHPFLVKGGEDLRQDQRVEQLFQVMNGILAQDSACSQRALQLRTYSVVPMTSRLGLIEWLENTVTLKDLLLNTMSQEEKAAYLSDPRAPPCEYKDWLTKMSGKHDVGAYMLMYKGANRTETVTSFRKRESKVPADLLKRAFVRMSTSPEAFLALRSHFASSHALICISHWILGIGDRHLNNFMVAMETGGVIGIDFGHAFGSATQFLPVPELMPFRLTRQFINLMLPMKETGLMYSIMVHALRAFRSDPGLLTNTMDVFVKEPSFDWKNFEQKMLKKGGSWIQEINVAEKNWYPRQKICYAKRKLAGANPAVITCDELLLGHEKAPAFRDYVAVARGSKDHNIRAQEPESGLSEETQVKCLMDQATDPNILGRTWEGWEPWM

Row | Compound | IC50 [µM]
1 | COc1ccc(COCc2nc(O)c(C#N)cc2-c2ccncc2)cc1 | > 500
2 | N#Cc1cc(-c2ccncc2)c(/C=N/N)nc1O | 100
3 | O=c1cc(N2CCOCC2)oc2c(-c3ccccc3)cccc12 [LY-294002] | 1.4
4 | N#Cc1cc(-c2ccncc2)c(CO)nc1O | > 500
